Measurements: PMC4260745, “Modulation of A1 and A2B adenosine receptor activity: a new strategy to sensitise glioblastoma stem cells to chemotherapy” (Cell Death & Disease, 2014)

Biological target: T1, A2BAR (A2B adenosine receptor) (Homo sapiens, UniProt P29275)
T1 construct: gene ADORA2B
T1 sequence (P29275 1-332): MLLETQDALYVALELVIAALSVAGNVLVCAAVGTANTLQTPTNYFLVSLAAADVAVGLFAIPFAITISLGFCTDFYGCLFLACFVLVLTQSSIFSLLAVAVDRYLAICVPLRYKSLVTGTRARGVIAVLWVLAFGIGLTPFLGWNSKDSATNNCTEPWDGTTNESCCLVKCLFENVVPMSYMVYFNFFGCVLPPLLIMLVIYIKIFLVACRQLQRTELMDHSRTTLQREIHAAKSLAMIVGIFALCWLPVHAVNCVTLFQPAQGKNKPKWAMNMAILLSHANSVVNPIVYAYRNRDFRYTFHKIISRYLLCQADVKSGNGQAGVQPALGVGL
Assay: […]GTPγS binding, membranes of U343MG-derived CSCs (endogenous receptor)
Assay type: biochemical

N#Cc1c(N)nc(SCC(N)=O)c(C#N)c1-c1ccc(OCC2CC2)cc1 [BAY606583, 2-[6-Amino-3,5-dicyano-4-[4-(cyclopropylmethoxy)-phenyl]pyridin-2-ylsulfanyl]acetamide]
EC50: 1.9 ± 0.2 nM
